Measurements published in patent publication US11091463B2, “Amide-substituted pyridinyltriazole derivatives and uses thereof” (BAYER PHARMA AKTIENGESELLSCHAFT, priority 2016, dated 2021).

Molecular target: T1, human V1a receptor (Homo sapiens, UniProt P37288)
T1 construct: expressed in transfected cells; host or cells: CHO K1 (ATCC), also stably transfected with a modified aequorin
Assay: Cellular in vitro assay for vasopressin receptor activity, V1a receptor cell line (photoprotein luminescence)
Type: cell-based
Details: Table 1A; compounds of the invention; selectivity ratio
Description: B-1. Cellular In Vitro Assay for Determining Vasopressin Receptor Activity
The identification of agonists and antagonists of the V1a and V2 vasopressin receptors from humans, rats and dogs as well as the quantification of the activity of the compounds of the invention is carried out using recombinant cell lines. These cell lines originally derive from a hamster's ovary epithelial cell (Chinese Hamster Ovary, CHO K1, ATCC: American Type Culture Collection, Manassas, Va. 20108, USA). The test cell lines constitutively express the human, rat or dog V1a or V2 receptors. In case of the Gαq-coupled V1a receptors, cells are also stably transfected with a modified form of the calcium-sensitive photoproteins aequorin (human and rat V1a) or obelin (dog V1a), which, after reconstitution with the cofactor coelenterazine, emit light when there are increases in free calcium concentrations [Rizzuto R, Simpson A W, Brini M, Pozzan T, Nature, 358, 325-327 (1992); Illarionov B A, Bondar V S, Illarionova V A, Vysotski E S, Gene, 153 (2), 273-274 (1995)]. The resulting vasopressin receptor cells react to stimulation of the recombinantly expressed V1a receptors by intracellular release of calcium ions, which can be quantified by the resulting photoprotein luminescence. The Gs-coupled V2 receptors are stably transfected into cell lines expressing the gene for firefly luciferase under control of a CRE-responsible promoter. Activation of V2 receptors induces the activation of the CRE-responsive promoter via cAMP increase, thereby inducing the expression of firefly luciferase. The light emitted by photoproteins of V1a cell lines as well as the light emitted by firefly luciferase of V2 cell lines corresponds to the activation or inhibition of the respective vasopressin receptor. The bioluminescence of the cell lines is detected using a suitable luminometer [Milligan G, Marshall F, Rees S, Trends in Pharmacological Sciences, 17, 235-237 (1996)].
Vasopressin V1a Receptor Cell Lines:
On the day before the assay, the cells are plated out in culture medium (DMEM/F12, 2% FCS, 2 mM glutamine, 10 mM HEPES, 5 μg/ml coelenterazine) in 384-well microtiter plates and kept in a cell incubator (96% humidity, 5% v/v CO2, 37° C.). On the day of the assay, test compounds in various concentrations are placed for 10 minutes in the wells of the microtiter plate before the agonist [Arg^8]-vasopressin at EC50 concentration is added. The resulting light signal is measured immediately in a luminometer.
Table 1A below lists individual IC50 values for the compounds of the invention (including racemic mixtures as well as separated enantiomers) that were obtained from cell lines transfected with the human V1a or V2 receptor: […]

T1 sequence (P37288 whole entry): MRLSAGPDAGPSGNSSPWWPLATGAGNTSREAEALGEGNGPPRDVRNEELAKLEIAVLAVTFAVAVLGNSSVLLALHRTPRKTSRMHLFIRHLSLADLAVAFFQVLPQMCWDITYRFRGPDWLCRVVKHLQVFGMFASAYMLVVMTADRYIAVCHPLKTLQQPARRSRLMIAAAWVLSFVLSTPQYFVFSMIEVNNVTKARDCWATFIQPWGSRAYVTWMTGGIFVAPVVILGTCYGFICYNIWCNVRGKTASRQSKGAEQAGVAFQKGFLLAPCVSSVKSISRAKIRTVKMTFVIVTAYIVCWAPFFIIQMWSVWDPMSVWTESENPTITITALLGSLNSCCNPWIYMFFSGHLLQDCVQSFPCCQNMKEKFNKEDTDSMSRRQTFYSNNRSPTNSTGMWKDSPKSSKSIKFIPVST

Structure (SMILES) | ratio IC50 hV2/hV1a
NC(=O)c1nc(Cn2nc(-c3ccc(Cl)cc3)n(C[C@H](O)C(F)(F)F)c2=O)nn1-c1ncccc1Cl [Example 1, 3-({3-(4-Chlorophenyl)-5-oxo-4-[(2S)-3,3,3-trifluoro-2-hydroxypropyl]-4,5-dihydro-1H-1,2,4-triazol-1-yl}methyl)-1-(3-chloropyridin-2-yl)-1H-1,2,4-triazole-5-carboxamide] | 38.2
NC(=O)c1nc(Cn2nc(-c3ccc(Cl)cc3)n(C[C@H](O)C(F)(F)F)c2=O)nn1-c1ncccc1C(F)(F)F [Example 2, 3-({3-(4-Chlorophenyl)-5-oxo-4-[(2S)-3,3,3-trifluoro-2-hydroxypropyl]-4,5-dihydro-1H-1,2,4-triazol-1-yl}methyl)-1-[3-(trifluoromethyl)pyridin-2-yl]-1H-1,2,4-triazole-5-carboxamide] | 141.0
NC(=O)c1nc(Cn2nc(-c3ccc(Cl)cc3)n(C[C@H](O)C(F)(F)F)c2=O)nn1-c1ncccc1OC(F)(F)F [Example 3, 3-({3-(4-Chlorophenyl)-5-oxo-4-[(2S)-3,3,3-trifluoro-2-hydroxypropyl]-4,5-dihydro-1H-1,2,4-triazol-1-yl}methyl)-1-[3-(trifluoromethoxy)pyridin-2-yl]-1H-1,2,4-triazole-5-carboxamide] | 54.7
NC(=O)c1nc(Cn2nc(-c3ccc(Cl)cc3)n(C[C@H](O)C(F)(F)F)c2=O)nn1-c1ncccc1Br [Example 4, 1-(3-Bromopyridin-2-yl)-3-({3-(4-chlorophenyl)-5-oxo-4-[(2S)-3,3,3-trifluoro-2-hydroxypropyl]-4,5-dihydro-1H-1,2,4-triazol-1-yl}methyl)-1H-1,2,4-triazole-5-carboxamide] | 72.6
CCOC(=O)c1cccnc1-n1nc(Cn2nc(-c3ccc(Cl)cc3)n(C[C@H](O)C(F)(F)F)c2=O)nc1C(N)=O [Example 5, Ethyl 2-[5-carbamoyl-3-({3-(4-chlorophenyl)-5-oxo-4-[(2S)-3,3,3-trifluoro-2-hydroxypropyl]-4,5-dihydro-1H-1,2,4-triazol-1-yl}methyl)-1H-1,2,4-triazol-1-yl]nicotinate] | 85.9
NC(=O)c1nc(Cn2nc(-c3ccc(Cl)cc3)n(C[C@H](O)C(F)(F)F)c2=O)nn1-c1cnccc1Cl [Example 6, 3-({3-(4-Chlorophenyl)-5-oxo-4-[(2S)-3,3,3-trifluoro-2-hydroxypropyl]-4,5-dihydro-1H-1,2,4-triazol-1-yl}methyl)-1-(4-chloropyridin-3-yl)-1H-1,2,4-triazole-5-carboxamide] | 43.9
NC(=O)c1nc(Cn2nc(-c3ccc(Cl)cc3)n(C[C@H](O)C(F)(F)F)c2=O)nn1-c1cnccc1C(F)(F)F [Example 7, 3-({3-(4-Chlorophenyl)-5-oxo-4-[(2S)-3,3,3-trifluoro-2-hydroxypropyl]-4,5-dihydro-1H-1,2,4-triazol-1-yl}methyl)-1-[4-(trifluoromethyl)pyridin-3-yl]-1H-1,2,4-triazole-5-carboxamide] | 117.3
CCOC(=O)c1ccncc1-n1nc(Cn2nc(-c3ccc(Cl)cc3)n(C[C@H](O)C(F)(F)F)c2=O)nc1C(N)=O [Example 8, Ethyl 3-[5-carbamoyl-3-({3-(4-chlorophenyl)-5-oxo-4-[(2S)-3,3,3-trifluoro-2-hydroxypropyl]-4,5-dihydro-1H-1,2,4-triazol-1-yl}methyl)-1H-1,2,4-triazol-1-yl]isonicotinate] | 35.0
NC(=O)c1cccnc1-n1nc(Cn2nc(-c3ccc(Cl)cc3)n(C[C@H](O)C(F)(F)F)c2=O)nc1C(N)=O [Example 9, 2-[5-carbamoyl-3-({3-(4-chlorophenyl)-5-oxo-4-[(2S)-3,3,3-trifluoro-2-hydroxypropyl]-4,5-dihydro-1H-1,2,4-triazol-1-yl}methyl)-1H-1,2,4-triazol-1-yl]nicotinamide] | 30.0
NC(=O)c1nc(Cn2nc(-c3ccc(Cl)cc3)n(C[C@@H](O)C(F)(F)F)c2=O)nn1-c1ncccc1Cl [Example 10, 3-({3-(4-Chlorophenyl)-5-oxo-4-[(2R)-3,3,3-trifluoro-2-hydroxypropyl]-4,5-dihydro-1H-1,2,4-triazol-1-yl}methyl)-1-(3-chloropyridin-2-yl)-1H-1,2,4-triazole-5-carboxamide] | 116.2
NC(=O)c1nc(Cn2nc(-c3ccc(Cl)cc3)n(C[C@@H](O)C(F)(F)F)c2=O)nn1-c1ncccc1C(F)(F)F [Example 11, 3-({3-(4-Chlorophenyl)-5-oxo-4-[(2R)-3,3,3-trifluoro-2-hydroxypropyl]-4,5-dihydro-1H-1,2,4-triazol-1-yl}methyl)-1-[3-(trifluoromethyl)pyridin-2-yl]-1H-1,2,4-triazole-5-carboxamide] | 196.8
NC(=O)c1nc(Cn2nc(-c3ccc(Cl)cc3)n(C[C@@H](O)C(F)(F)F)c2=O)nn1-c1cnccc1Cl [Example 12, 3-({3-(4-Chlorophenyl)-5-oxo-4-[(2R)-3,3,3-trifluoro-2-hydroxypropyl]-4,5-dihydro-1H-1,2,4-triazol-1-yl}methyl)-1-(4-chloropyridin-3-yl)-1H-1,2,4-triazole-5-carboxamide] | 249.3
NC(=O)c1nc(Cn2nc(-c3ccc(Cl)cc3)n(C[C@@H](O)C(F)(F)F)c2=O)nn1-c1cnccc1C(F)(F)F [Example 13, 3-({3-(4-Chlorophenyl)-5-oxo-4-[(2R)-3,3,3-trifluoro-2-hydroxypropyl]-4,5-dihydro-1H-1,2,4-triazol-1-yl}methyl)-1-[4-(trifluoromethyl)pyridin-3-yl]-1H-1,2,4-triazole-5-carboxamide] | 431.3
NC(=O)c1nc(Cn2nc(-c3ccc(Cl)cc3)n(CC(=O)C(F)(F)F)c2=O)nn1-c1ncccc1Cl [Example 14, 3-{[3-(4-Chlorophenyl)-5-oxo-4-(3,3,3-trifluoro-2-oxopropyl)-4,5-dihydro-1H-1,2,4-triazol-1-yl]methyl}-1-(3-chloropyridin-2-yl)-1H-1,2,4-triazole-5-carboxamide (ketone form) or 3-{[3-(4-chlorophenyl)-5-oxo-4-(3,3,3-trifluoro-2,2-dihydroxypropyl)-4,5-dihydro-1H-1,2,4-triazol-1-yl]methyl}-1-[2-(trifluoromethyl)phenyl]-1H-1,2,4-triazole-5-carboxamide (hydrate form)] | 20.0
NC(=O)c1nc(Cn2nc(-c3ccc(Cl)cc3)n(CC(=O)C(F)(F)F)c2=O)nn1-c1ncccc1Br [Example 15, 1-(3-Bromopyridin-2-yl)-3-{[3-(4-chlorophenyl)-5-oxo-4-(3,3,3-trifluoro-2-oxopropyl)-4,5-dihydro-1H-1,2,4-triazol-1-yl]methyl}-1H-1,2,4-triazole-5-carboxamide (ketone form) or 1-(3-Bromopyridin-2-yl)-3-{[3-(4-chlorophenyl)-5-oxo-4-(3,3,3-trifluoro-2,2-dihydroxypropyl)-4,5-dihydro-1H-1,2,4-triazol-1-yl]methyl}-1H-1,2,4-triazole-5-carboxamide (hydrate form)] | 47.2
NC(=O)c1nc(Cn2nc(-c3ccc(Cl)cc3)n(CC(=O)C(F)(F)F)c2=O)nn1-c1cnccc1Cl [Example 16, 3-{[3-(4-Chlorophenyl)-5-oxo-4-(3,3,3-trifluoro-2-oxopropyl)-4,5-dihydro-1H-1,2,4-triazol-1-yl]methyl}-1-(4-chloropyridin-3-yl)-1H-1,2,4-triazole-5-carboxamide (ketone form) or 3-{[3-(4-Chlorophenyl)-5-oxo-4-(3,3,3-trifluoro-2,2-dihydroxypropyl)-4,5-dihydro-1H-1,2,4-triazol-1-yl]-methyl}-1-(4-chloropyridin-3-yl)-1H-1,2,4-triazole-5-carboxamide (hydrate form)] | 53.6
